Source: ChEMBL document CHEMBL5620355, “Discovery of intracellular self-assembly protein degraders driven by tumor-specific activatable bioorthogonal reaction” (Eur J Med Chem, 2023)
Active and inactive are the calls of the source. No cut-off for these calls is given here.

Columns and labels:
HEK293 [1] = test: Cytotoxicity against HEK293 cells at low concentration incubated for 48 hrs in presence of 4-(4-(3-(4-chloro-3-(trifluoromethyl)phenyl)ureido)phenoxy)-N-(prop-2-yn-1-yl)picolinamide by MTT assay; format: toxicity, cell-based; conditions: human, hek293, 48 h
U-87 MG [2] = test: Antiproliferative activity against human U87 cells incubated for 48 hrs in presence of 4-(4-(3-(4-chloro-3-(trifluoromethyl)phenyl)ureido)phenoxy)-N-(prop-2-yn-1-yl)picolinamide by MTT assay; format: functional, cell-based, U-87MG ATCC
[3] = biological target: Serine/threonine-protein kinase B-raf (Homo sapiens) (UniProt P15056); test: Induction of BRAF degradation in human U87 cells at 10 uM incubated for 48 hrs by Western blot analysis; format: cell-based
Sequence of Serine/threonine-protein kinase B-raf (Homo sapiens) (P15056 whole entry): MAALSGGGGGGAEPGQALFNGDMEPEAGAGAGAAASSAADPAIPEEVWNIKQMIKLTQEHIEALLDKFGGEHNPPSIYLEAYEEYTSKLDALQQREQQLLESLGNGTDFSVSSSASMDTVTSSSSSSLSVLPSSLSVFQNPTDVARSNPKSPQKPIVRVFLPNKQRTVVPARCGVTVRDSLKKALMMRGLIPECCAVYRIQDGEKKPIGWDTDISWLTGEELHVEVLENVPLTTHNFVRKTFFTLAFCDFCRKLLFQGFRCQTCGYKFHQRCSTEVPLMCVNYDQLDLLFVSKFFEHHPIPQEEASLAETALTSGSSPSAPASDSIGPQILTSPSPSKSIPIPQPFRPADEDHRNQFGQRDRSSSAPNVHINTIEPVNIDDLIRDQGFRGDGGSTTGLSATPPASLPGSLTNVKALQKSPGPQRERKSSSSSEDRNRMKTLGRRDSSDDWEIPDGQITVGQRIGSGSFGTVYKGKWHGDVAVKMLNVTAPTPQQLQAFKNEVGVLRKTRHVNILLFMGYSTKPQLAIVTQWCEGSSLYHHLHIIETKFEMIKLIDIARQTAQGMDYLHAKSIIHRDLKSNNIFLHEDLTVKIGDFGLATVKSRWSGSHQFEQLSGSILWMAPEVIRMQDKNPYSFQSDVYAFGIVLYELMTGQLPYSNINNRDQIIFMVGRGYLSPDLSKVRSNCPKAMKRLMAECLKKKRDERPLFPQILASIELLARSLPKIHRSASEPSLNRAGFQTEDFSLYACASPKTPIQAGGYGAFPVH

U-87 MG [4] = test: Induction of apoptosis in human U87 cells assessed as viable cells at 0.1 uM incubated for 48 hrs in presence of 4-(4-(3-(4-chloro-3-(trifluoromethyl)phenyl)ureido)phenoxy)-N-(prop-2-yn-1-yl)picolinamide by Annexin V-FLTC/PI staining based flow cytometry (reference value: 86.74 %); format: functional, U-87MG ATCC; conditions: read-out: Activity
U-87 MG [5] = test: Induction of apoptosis in human U87 cells assessed as necrotic cells at 1 uM incubated for 48 hrs in presence of 4-(4-(3-(4-chloro-3-(trifluoromethyl)phenyl)ureido)phenoxy)-N-(prop-2-yn-1-yl)picolinamide by Annexin V-FLTC/PI staining based flow cytometry (reference value: 0.60 %); format: functional, U-87MG ATCC
U-87 MG [6] = test: Induction of apoptosis in human U87 cells assessed as necrotic cells at 10 uM incubated for 48 hrs in presence of 4-(4-(3-(4-chloro-3-(trifluoromethyl)phenyl)ureido)phenoxy)-N-(prop-2-yn-1-yl)picolinamide by Annexin V-FLTC/PI staining based flow cytometry (reference value: 0.60 %); format: functional, U-87MG ATCC
U-87 MG [7] = test: Induction of apoptosis in human U87 cells assessed as viable cells at 10 uM incubated for 48 hrs in presence of 4-(4-(3-(4-chloro-3-(trifluoromethyl)phenyl)ureido)phenoxy)-N-(prop-2-yn-1-yl)picolinamide by Annexin V-FLTC/PI staining based flow cytometry (reference value: 86.74 %); format: functional, U-87MG ATCC; conditions: read-out: Activity
HEK293 [8] = test: Cytotoxicity against HEK293 cells at high concentration incubated for 48 hrs in presence of 4-(4-(3-(4-chloro-3-(trifluoromethyl)phenyl)ureido)phenoxy)-N-(prop-2-yn-1-yl)picolinamide by MTT assay; format: toxicity, cell-based; conditions: human, hek293, 48 h
U-87 MG [9] = test: Induction of apoptosis in human U87 cells assessed as late apoptotic cells at 0.1 uM incubated for 48 hrs in presence of 4-(4-(3-(4-chloro-3-(trifluoromethyl)phenyl)ureido)phenoxy)-N-(prop-2-yn-1-yl)picolinamide by Annexin V-FLTC/PI staining based flow cytometry (reference value: 3.71 %); format: functional, U-87MG ATCC
U-87 MG [10] = test: Induction of apoptosis in human U87 cells assessed as necrotic cells at 0.1 uM incubated for 48 hrs in presence of 4-(4-(3-(4-chloro-3-(trifluoromethyl)phenyl)ureido)phenoxy)-N-(prop-2-yn-1-yl)picolinamide by Annexin V-FLTC/PI staining based flow cytometry (reference value: 0.60 %); format: functional, U-87MG ATCC
U-87 MG [11] = test: Induction of apoptosis in human U87 cells assessed as necrotic cells at 20 uM incubated for 48 hrs in presence of 4-(4-(3-(4-chloro-3-(trifluoromethyl)phenyl)ureido)phenoxy)-N-(prop-2-yn-1-yl)picolinamide by Annexin V-FLTC/PI staining based flow cytometry (reference value: 0.60 %); format: functional, U-87MG ATCC
[12] = Stability of compound in DMEM medium by HPLC analysis; format: physicochemical
U-87 MG [13] = test: Induction of apoptosis in human U87 cells assessed as viable cells at 1 uM incubated for 48 hrs in presence of 4-(4-(3-(4-chloro-3-(trifluoromethyl)phenyl)ureido)phenoxy)-N-(prop-2-yn-1-yl)picolinamide by Annexin V-FLTC/PI staining based flow cytometry (reference value: 86.74 %); format: functional, U-87MG ATCC; conditions: read-out: Activity
U-87 MG [14] = test: Induction of apoptosis in human U87 cells assessed as early apoptotic cells at 1 uM incubated for 48 hrs in presence of 4-(4-(3-(4-chloro-3-(trifluoromethyl)phenyl)ureido)phenoxy)-N-(prop-2-yn-1-yl)picolinamide by Annexin V-FLTC/PI staining based flow cytometry (reference value: 8.95 %); format: functional, U-87MG ATCC
U-87 MG [15] = test: (§1) Induction of apoptosis in human U87 cells assessed as necrotic cells at 1 uM incubated for 48 hrs in presence of (2S,4R)-1-((S)-2-(5-azidopentanamido)-3,3-dimethylbutanoyl)-4-hydroxy-N-(4-(4-methylthiazol-5-yl)benzyl)pyrrolidine-2-carboxamide by Annexin V-FLTC/PI staining based flow cytometry (reference value: 0.60 %); format: functional, U-87MG ATCC
U-87 MG [16] = test: as §1, with “at 5” for “at 1”; format: functional, U-87MG ATCC
U-87 MG [17] = test: (§2) Induction of apoptosis in human U87 cells assessed as late apoptotic cells at 0.1 uM incubated for 48 hrs in presence of (2S,4R)-1-((S)-2-(5-azidopentanamido)-3,3-dimethylbutanoyl)-4-hydroxy-N-(4-(4-methylthiazol-5-yl)benzyl)pyrrolidine-2-carboxamide by Annexin V-FLTC/PI staining based flow cytometry (reference value: 3.71 %); format: functional, U-87MG ATCC
HEK293 [18] = test: Cytotoxicity against HEK293 cells at low concentration incubated for 48 hrs in presence of 4-azido-N-(2-(2,6-dioxopiperidin-3-yl)-1,3-dioxoisoindolin-4-yl)butanamide by MTT assay; format: toxicity, cell-based; conditions: human, hek293, 48 h
HEK293 [19] = test: Cytotoxicity against HEK293 cells at high concentration incubated for 48 hrs in presence of (2S,4R)-1-((S)-2-(5-azidopentanamido)-3,3-dimethylbutanoyl)-4-hydroxy-N-(4-(4-methylthiazol-5-yl)benzyl)pyrrolidine-2-carboxamide by MTT assay; format: toxicity, cell-based; conditions: human, hek293, 48 h
[20] = biological target: Platelet-derived growth factor receptor beta (Homo sapiens) (UniProt P09619); test: Induction of PDGFR-beta degradation in human U87 cells upto 10 uM incubated for 48 hrs by Western blot analysis; format: cell-based
Sequence of Platelet-derived growth factor receptor beta (Homo sapiens) (P09619 whole entry): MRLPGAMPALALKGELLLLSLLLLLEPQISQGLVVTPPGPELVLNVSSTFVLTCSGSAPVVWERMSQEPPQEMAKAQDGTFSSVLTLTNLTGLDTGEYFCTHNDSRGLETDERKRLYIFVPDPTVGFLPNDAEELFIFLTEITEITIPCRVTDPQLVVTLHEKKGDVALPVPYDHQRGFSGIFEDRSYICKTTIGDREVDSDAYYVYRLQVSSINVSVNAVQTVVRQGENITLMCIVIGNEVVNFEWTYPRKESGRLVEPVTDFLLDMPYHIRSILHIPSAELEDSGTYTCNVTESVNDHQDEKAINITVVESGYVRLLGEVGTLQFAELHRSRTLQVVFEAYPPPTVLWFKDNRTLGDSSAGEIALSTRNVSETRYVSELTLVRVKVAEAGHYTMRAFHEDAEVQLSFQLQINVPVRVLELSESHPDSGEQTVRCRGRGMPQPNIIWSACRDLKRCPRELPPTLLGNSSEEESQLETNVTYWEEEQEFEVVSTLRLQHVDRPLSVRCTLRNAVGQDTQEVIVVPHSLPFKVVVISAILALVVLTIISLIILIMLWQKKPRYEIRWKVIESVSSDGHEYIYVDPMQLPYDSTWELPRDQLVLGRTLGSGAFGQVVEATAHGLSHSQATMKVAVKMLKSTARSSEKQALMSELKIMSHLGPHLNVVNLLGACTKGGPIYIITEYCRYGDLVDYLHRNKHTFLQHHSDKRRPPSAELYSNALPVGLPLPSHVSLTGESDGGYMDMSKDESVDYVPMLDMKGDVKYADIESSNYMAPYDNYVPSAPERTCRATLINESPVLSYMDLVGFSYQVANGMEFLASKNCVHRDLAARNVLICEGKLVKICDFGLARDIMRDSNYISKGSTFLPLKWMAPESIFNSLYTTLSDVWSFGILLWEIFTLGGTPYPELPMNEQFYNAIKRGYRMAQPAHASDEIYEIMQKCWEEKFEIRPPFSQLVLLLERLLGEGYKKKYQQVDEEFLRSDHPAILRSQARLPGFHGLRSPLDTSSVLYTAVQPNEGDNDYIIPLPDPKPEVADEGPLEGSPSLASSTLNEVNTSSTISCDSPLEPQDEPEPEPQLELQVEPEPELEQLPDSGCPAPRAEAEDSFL

U-87 MG [21] = test: (§3) Induction of apoptosis in human U87 cells assessed as viable cells at 1 uM incubated for 48 hrs in presence of (2S,4R)-1-((S)-2-(5-azidopentanamido)-3,3-dimethylbutanoyl)-4-hydroxy-N-(4-(4-methylthiazol-5-yl)benzyl)pyrrolidine-2-carboxamide by Annexin V-FLTC/PI staining based flow cytometry (reference value: 86.74 %); format: functional, U-87MG ATCC; conditions: read-out: Activity
U-87 MG [22] = test: Antiproliferative activity against human U87 cells incubated for 48 hrs in presence of 4-azido-N-(2-(2,6-dioxopiperidin-3-yl)-1,3-dioxoisoindolin-4-yl)butanamide by MTT assay; format: functional, cell-based, U-87MG ATCC
U-87 MG [23] = test: Induction of apoptosis in human U87 cells assessed as necrotic cells at 10 uM incubated for 48 hrs in presence of (2S,4R)-1-((S)-2-(5-azidopentanamido)-3,3-dimethylbutanoyl)-4-hydroxy-N-(4-(4-methylthiazol-5-yl)benzyl)pyrrolidine-2-carboxamide by Annexin V-FLTC/PI staining based flow cytometry (reference value: 0.60 %); format: functional, U-87MG ATCC
U-87 MG [24] = test: Induction of apoptosis in human U87 cells assessed as viable cells at 10 uM incubated for 48 hrs in presence of (2S,4R)-1-((S)-2-(5-azidopentanamido)-3,3-dimethylbutanoyl)-4-hydroxy-N-(4-(4-methylthiazol-5-yl)benzyl)pyrrolidine-2-carboxamide by Annexin V-FLTC/PI staining based flow cytometry (reference value: 86.74 %); format: functional, U-87MG ATCC; conditions: read-out: Activity
A549 = test: Antiproliferative activity against human A549 cells incubated for 48 hrs in presence of (2S,4R)-1-((S)-2-(5-azidopentanamido)-3,3-dimethylbutanoyl)-4-hydroxy-N-(4-(4-methylthiazol-5-yl)benzyl)pyrrolidine-2-carboxamide by MTT assay; format: functional, cell-based; conditions: A549, 48 h
U-87 MG [25] = test: as §3, with “at 20” for “at 1”; format: functional, U-87MG ATCC; conditions: read-out: Activity
U-87 MG [26] = test: as §2, with “20” for “0.1”; format: functional, U-87MG ATCC

[N-]=[N+]=NCCCC(=O)Nc1cccc2c1C(=O)N(C1CCC(=O)NC1=O)C2=O (configuration not stated)
Activity (HEK293 [1]): Non-Toxic | IC50 (U-87 MG [2]): 5.68 µM | Activity [3]: Active | viability at 0.1 µM (U-87 MG [4]): 85.3% | Activity (U-87 MG [5]): 1.26% | Activity (U-87 MG [6]): 25.6% | viability at 10 µM (U-87 MG [7]): 1.74% | Activity (HEK293 [8]): Toxic | Activity (U-87 MG [9]): 3.35% | Activity (U-87 MG [10]): 1.02% | Activity (U-87 MG [11]): 6.36% | Stability [12]: Unstable | viability at 1 µM (U-87 MG [13]): 81.6% | Activity (U-87 MG [14]): 11.69%

C#CCNC(=O)c1cc(Oc2ccc(NC(=O)Nc3ccc(Cl)c(C(F)(F)F)c3)cc2)ccn1
Activity (U-87 MG [15]): 1.26% | Activity (U-87 MG [16]): 25.22% | Activity (U-87 MG [17]): 3.35% | Activity (HEK293 [18]): Non-Toxic | Activity (HEK293 [19]): Toxic | Activity [20]: inactive | viability at 1 µM (U-87 MG [21]): 81.6% | IC50 (U-87 MG [22]): 5.68 µM | Activity (U-87 MG [23]): 25.6% | viability at 10 µM (U-87 MG [24]): 1.74% | IC50 (A549): 1060 nM | viability at 20 µM (U-87 MG [25]): 9.88% | Activity (U-87 MG [26]): 79.04%
